Laboratory results published in ChEMBL document CHEMBL3885861, “Open TG-GATES”.

Species: Rattus norvegicus
Assay: Open TG-GATES - Regimen: Daily Repeat
Format: toxicity, organism-based, Sprague-Dawley
Parameters: regimen Daily Repeat, gender Male, age 6 weeks
Conditions: in vivo, po, 30 mg/kg, route gavage, dose level Middle; for APTT / Bas / Eos / Fbg / Hb / Ht / Lym / MCH / MCHC / MCV / Mono / Neu / PT / Plat / RBC / Ret / WBC: tissue Blood; for KIDNEY_L / KIDNEY_R / KIDNEY_TOTAL: tissue Kidney; for LIVER: tissue Liver; for A/G / ALP / ALT / AST / BUN / CRE / Ca / Cl / DBIL / GLC / IP / K / LDH / Na / PL / RALB / TBIL / TC / TG / TP / gamma-GTP: tissue Plasma

## CCC1(c2ccccc2)C(=O)NC(=O)NC1=O [PHENOBARBITAL]
72 h, time 3 day
  TERMINAL_BW: 222.1 g
  APTT: 15.2 s
  Bas: 0%
  Eos: 0.6%
  Fbg: 228.4 mg/dL
  Hb: 13.5 g/dL
  Ht: 40.1%
  Lym: 81.2%
  MCH: 21.8 pg
  MCHC: 33.7%
  MCV: 64.9 fL
  Mono: 6.4%
  Neu: 12%
  PT: 11.2 s
  Plat: 118.8 x10_4/uL
  RBC: 618 x10_4/ul
  Ret: 7.6%
  WBC: 95.1 x10_2/uL
  KIDNEY_L: 0.9 g
  KIDNEY_R: 0.9 g
  KIDNEY_TOTAL: 1.9 g
  LIVER: 12.5 g
  A/G: 1.6
  ALP: 932 IU/L
  ALT: 36.6 IU/L
  AST: 63.2 IU/L
  BUN: 17.2 mg/dL
  CRE: 0.6 mg/dL
  Ca: 11.2 mg/dL
  Cl: 105.2 meq/L
  DBIL: 0.026 mg/dL
  GLC: 201 mg/dL
  IP: 9.2 mg/dL
  K: 4.5 meq/L
  LDH: 128.8 IU/L
  Na: 139.8 meq/L
  PL: 168.6 mg/dL
  RALB: 3.6 g/dL
  TBIL: 0.4 mg/dL
  TC: 92 mg/dL
  TG: 116.4 mg/dL
  TP: 5.9 g/dL
  gamma-GTP: 1.2 IU/L
[…], time 7 day
  TERMINAL_BW: 261.6 g
  APTT: 15.6 s
  Bas: 0%
  Eos: 0.2%
  Fbg: 242.4 mg/dL
  Hb: 13.6 g/dL
  Ht: 40.8%
  Lym: 80.8%
  MCH: 21.6 pg
  MCHC: 33.3%
  MCV: 64.9 fL
  Mono: 6.6%
  Neu: 12%
  PT: 11.6 s
  Plat: 120.5 x10_4/uL
  RBC: 629.6 x10_4/ul
  Ret: 6.9%
  WBC: 121 x10_2/uL
  KIDNEY_L: 1.1 g
  KIDNEY_R: 1.1 g
  KIDNEY_TOTAL: 2.2 g
  LIVER: 14.7 g
  A/G: 1.5
  ALP: 888 IU/L
  ALT: 29.8 IU/L
  AST: 58.4 IU/L
  BUN: 18.8 mg/dL
  CRE: 0.6 mg/dL
  Ca: 11 mg/dL
  Cl: 106.4 meq/L
  DBIL: 0.042 mg/dL
  GLC: 204 mg/dL
  IP: 8.8 mg/dL
  K: 4.6 meq/L
  LDH: 95 IU/L
  Na: 140.8 meq/L
  PL: 157 mg/dL
  RALB: 3.6 g/dL
  TBIL: 0.4 mg/dL
  TC: 85 mg/dL
  TG: 115.2 mg/dL
  TP: 6 g/dL
  gamma-GTP: 1.2 IU/L
[…], time 14 day
  TERMINAL_BW: 299.2 g
  APTT: 17.6 s
  Bas: 0%
  Eos: 0%
  Fbg: 229 mg/dL
  Hb: 14.6 g/dL
  Ht: 44.3%
  Lym: 88%
  MCH: 20.3 pg
  MCHC: 33%
  MCV: 61.5 fL
  Mono: 3%
  Neu: 8.4%
  PT: 11.6 s
  Plat: 114.8 x10_4/uL
  RBC: 720.6 x10_4/ul
  Ret: 4.8%
  WBC: 130.2 x10_2/uL
  KIDNEY_L: 1.2 g
  KIDNEY_R: 1.2 g
  KIDNEY_TOTAL: 2.3 g
  LIVER: 15.9 g
  A/G: 1.4
  ALP: 718.2 IU/L
  ALT: 27.6 IU/L
  AST: 61.8 IU/L
  BUN: 19.6 mg/dL
  CRE: 0.6 mg/dL
  Ca: 10.9 mg/dL
  Cl: 107 meq/L
  DBIL: 0.008 mg/dL
  GLC: 205.8 mg/dL
  IP: 8.5 mg/dL
  K: 4.2 meq/L
  LDH: 84.6 IU/L
  Na: 142 meq/L
  PL: 148.4 mg/dL
  RALB: 3.8 g/dL
  TBIL: 0.3 mg/dL
  TC: 79.2 mg/dL
  TG: 116.2 mg/dL
  TP: 6.5 g/dL
  gamma-GTP: 1 IU/L
[…], time 28 day
  TERMINAL_BW: 388.6 g
  APTT: 18.2 s
  Bas: 0%
  Eos: 1%
  Fbg: 215 mg/dL
  Hb: 15.1 g/dL
  Ht: 45%
  Lym: 82.6%
  MCH: 19.5 pg
  MCHC: 33.6%
  MCV: 58 fL
  Mono: 5.2%
  Neu: 11.6%
  PT: 12.2 s
  Plat: 103 x10_4/uL
  RBC: 777.2 x10_4/ul
  Ret: 3%
  WBC: 150 x10_2/uL
  KIDNEY_L: 1.3 g
  KIDNEY_R: 1.3 g
  KIDNEY_TOTAL: 2.7 g
  LIVER: 18 g
  A/G: 1.5
  ALP: 631.8 IU/L
  ALT: 32.2 IU/L
  AST: 58.6 IU/L
  BUN: 20.6 mg/dL
  CRE: 0.4 mg/dL
  Ca: 10.4 mg/dL
  Cl: 108 meq/L
  DBIL: 0.03 mg/dL
  GLC: 194.4 mg/dL
  IP: 7.5 mg/dL
  K: 4.8 meq/L
  LDH: 70 IU/L
  Na: 139.6 meq/L
  PL: 143.4 mg/dL
  RALB: 3.8 g/dL
  TBIL: 0.4 mg/dL
  TC: 76.8 mg/dL
  TG: 88.8 mg/dL
  TP: 6.3 g/dL
  gamma-GTP: 2.6 IU/L
